According to PubChem BioAssay (NCI):
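These data come from cells grown in 96-well plates and exposed to compound for 48 hours at five concentrations. Abbreviation: GI50, concentration required for 50% inhibition of growth. TGI marks complete inhibition of growth.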

Columns and labels:
Test in all cases: NCI anticancer screen, dose series, 48 h
HL-60(TB) leukemia = tested on: HL-60(TB) leukemia
EKVX NSCLC = tested on: EKVX NSCLC
CAKI-1 renal = tested on: CAKI-1 renal
A498 renal = tested on: A498 renal
RXF 393 renal = tested on: RXF 393 renal
LOX IMVI melanoma = tested on: LOX IMVI melanoma
NCI-H226 lung = tested on: NCI-H226 lung
K-562 leukemia = tested on: K-562 leukemia
HS 578T breast = tested on: HS 578T breast
MDA-MB-435 = tested on: MDA-MB-435

Row | SMILES | TGI (HL-60(TB) leukemia) [µM] | TGI (EKVX NSCLC) [µM] | TGI (CAKI-1 renal) [µM] | TGI (A498 renal) [µM] | TGI (RXF 393 renal) [µM] | TGI (LOX IMVI melanoma) [µM] | TGI (NCI-H226 lung) [µM] | TGI (K-562 leukemia) [µM] | GI50 (EKVX NSCLC) [µM] | GI50 (CAKI-1 renal) [µM] | GI50 (A498 renal) [µM] | GI50 (RXF 393 renal) [µM] | GI50 (HS 578T breast) [µM] | TGI (HS 578T breast) [µM] | GI50 (LOX IMVI melanoma) [µM] | GI50 (NCI-H226 lung) [µM] | GI50 (K-562 leukemia) [µM] | TGI (MDA-MB-435) [µM] | GI50 (HL-60(TB) leukemia) [µM] | GI50 (MDA-MB-435) [µM]
1 | C/C(CC(=O)CCCC(=O)Nc1ccc(Cl)cc1Cl)=N/NC(=O)CC#N | > 100 | > 100 | > 100 | > 100 | > 100 | > 100 | > 100 | > 100 | – | – | – | – | – | – | – | – | – | – | – | –
2 | Cc1ccc(-c2csc(N(C(=O)N3CCN(c4cc5c(cc4F)c(=O)c(C(=O)O)cn5C4CC4)CC3)c3ccccc3)n2)cc1 | – | > 100 | > 100 | 0.443 | 20.5 | > 100 | > 100 | > 100 | 0.381 | 0.373 | 0.0363 | 0.368 | 0.428 | > 100 | 0.305 | 0.338 | 0.269 | – | – | –
3 | COc1ccc(NC(=O)C(=O)C(CC2C(=O)NC(=S)NC2=O)C(=O)c2ccc3ccccc3c2)c([N+](=O)[O-])c1 (stereo not drawn) | > 100 | > 100 | > 100 | > 100 | – | > 100 | > 100 | > 100 | – | – | – | – | – | > 100 | – | – | – | > 100 | – | –
4 | CCOC(=O)C1Cc2c(ccc(OC)c2OC)C(=O)C1N (stereo not drawn) | > 100 | 36.1 | > 100 | – | > 100 | > 100 | > 100 | > 100 | – | – | – | – | – | – | – | – | – | – | – | –
5 | CCOC(=O)C12CCCC1(O)N(NC(=O)c1cccc(Cl)c1)C(C)=C2C(=O)OC (stereo not drawn) | > 100 | > 100 | > 100 | > 100 | > 100 | > 100 | > 100 | > 100 | – | – | – | – | – | – | – | – | – | – | – | –
6 | C[C@]12CCC[C@H](OC=O)C1(O)C[C@H](C(=O)O)CC2 (stereo partly drawn) | > 100 | 40.2 | > 100 | > 100 | > 100 | > 100 | > 100 | > 100 | – | – | – | – | – | – | – | – | – | – | – | –
7 | C=C(C)C1CC=C(C(=O)O)CC1 (stereo not drawn) | 2630 | > 5000 | 4080 | 4420 | 3110 | 3440 | 2590 | > 5000 | – | – | – | – | – | – | – | – | – | – | – | –
8 | COC1=CC(=O)c2ccc(C(C)C)cc2C1(C)C1=NC(C)(C)CO1 (stereo not drawn) | > 100 | > 100 | > 100 | – | > 100 | – | > 100 | > 100 | – | – | – | – | – | – | – | – | – | – | – | –
9 | O=C(O)/C(Cl)=C(\Cl)Nc1cccc(C(F)(F)F)c1 | > 100 | > 100 | > 100 | – | > 100 | > 100 | – | > 100 | – | – | – | – | – | – | – | – | – | – | – | –
10 | CCCCCCCCN(CCCCCCCC)C(=N)c1ccnc2ccccc12 | 2.97 | 2.68 | 2.44 | 2.85 | 2.36 | – | – | – | 1.28 | 1.17 | 1.41 | 0.874 | 1.71 | 4.81 | – | – | – | 1.07 | 1.3 | 0.302
11 | Cc1cc(N(CCC#N)CCC#N)ccc1/C=C1/CN(N2C(=O)/C(=C/c3ccc(N(CCC#N)CCC#N)cc3C)N=C2c2ccccc2)C(c2ccccc2)=N1 | > 100 | > 100 | > 100 | > 100 | 76.8 | > 100 | > 100 | > 100 | – | – | – | – | – | – | – | – | – | – | – | –
12 | O=c1ncc(-c2ccc(C(F)(F)F)cc2)c(NC2CCCCCC2)[nH]1 | 46.4 | – | 48.4 | 34 | 31.8 | – | 46 | 60.1 | – | 18.7 | 16.1 | 15.8 | 17.9 | 53.9 | – | 19.4 | 24.2 | 34.4 | 21 | 15.6
13 | C/C(=C\c1ccn(-c2ccc(N)c(C(F)(F)F)c2)n1)[C@@H]1C[C@@H]2O[C@]2(C)CCC[C@H](C)[C@H](O)[C@@H](C)C(=O)C(C)(C)[C@@H](O)CC(=O)O1 | 0.203 | > 32.5 | > 32.5 | 1.31 | 0.435 | > 20.8 | > 32.5 | > 32.5 | 0.344 | 0.0429 | 0.0175 | 0.0111 | 0.0103 | 11 | 0.0122 | 1.99 | 0.0109 | – | 0.0086 | –
14 | CC(=O)[CH-]C(=O)c1ccccc1.CC(=O)[CH-]C(=O)c1ccccc1.O=C([O-])C[O-].O=C([O-])C[O-].[Ti+4] | > 100 | > 100 | > 100 | > 100 | – | > 100 | 73 | > 100 | 96.7 | 54.5 | > 100 | – | – | – | 41.2 | 19.4 | 71.4 | – | 40 | –
15 | CN1C(=O)n2c(nc3ccccc32)C(N=[N+]=[N-])(N=[N+]=[N-])C1=O (stereo not drawn) | > 100 | > 100 | > 100 | > 100 | > 100 | > 100 | > 100 | > 100 | – | – | – | – | – | – | – | – | – | – | – | –
16 | CC(C#N)c1cn(S(=O)(=O)c2ccccc2)c2ccccc12 (stereo not drawn) | 88.1 | – | > 100 | – | – | – | > 100 | > 100 | – | – | – | – | – | – | – | – | – | – | – | –
17 | Nn1c(CCCl)nc2c(Br)cc(Br)cc2c1=O | 6.5 | > 93.7 | > 93.2 | > 56.9 | > 100 | 78.6 | > 75.1 | > 30.6 | – | – | – | – | – | – | – | – | – | – | – | –
18 | CCC[CH2][Sn]1([CH2]CCC)[O]C(c2ccccn2)S(=O)(=O)[O]1 (stereo not drawn) | 5.04 | 5.61 | 3.63 | 32.1 | 3.95 | 3.07 | 30 | 6.72 | 2.29 | 1.58 | 18.1 | 2.36 | – | – | 1.64 | 16.2 | 2.14 | – | 2.14 | –
19 | CCc1ccc(C2=C/C(=C/c3ccc(Cl)cc3)C(=O)N2CCc2ccc(S(N)(=O)=O)cc2)cc1 | 5.35 | 10 | 12.4 | – | 3.79 | – | 6.34 | > 100 | 2.62 | 2.91 | – | 1.74 | 3.05 | 10.9 | – | 2.37 | 2.81 | 4.81 | 2.12 | 2.15
